# Reference: patent publication US20230123695A1, “GLYCAN COMPOSITIONS AND METHODS OF USE” (DSM Nutritional Products, LLC, priority 2018, published 2023)
# What was measured:
# Assay type in all cases: cell-based, human fecal cultures
# [1] = tested on: Ruminococcaceae/Ruminococcus microbes; experiment: Ex vivo fecal slurry assay, 16S rRNA sequencing (Example 21); conditions: 1% w/v fecal slurry from 12 subjects, glycan 0.5% w/v, 37° C., 18 hours, anaerobically; FIG. 17
# Description: (§1) An ex vivo assay was designed to determine if glycans can be used to modulate a complex community of microorganisms and if the glycans produced consistent effects across communities obtained from multiple (twelve) subjects. Fecal samples and slurries were handled in an anaerobic chamber (AS-580, Anaerobe Systems) featuring a palladium catalyst. Glycans ara100, gal100, glu60man40, glu100, glu50gal50, gal33man33ara33, man75gal25, glu33gal33man34, glu33gal33Ara33, man100, man52glu29gal19 and commercially available glycans lactulose (Alfa Aesar) and FOS (Nutraflora FOS; NOW Foods, Bloomingdale Ill.) were included in the study. The fecal sample donations obtained from 12 subjects were stored at −80° C. To prepare working stocks the fecal samples were transferred into the anaerobic chamber and allowed to thaw.
# A microbial enzyme found in Bacteroidetes (e.g., Bacteroidales) and mucolytic bacteria such as Ruminococcus gnavus, is known to cause metabolic and inflammatory response to emulsifying agents. Decreasing the levels or activity of microbes expressing said microbial enzyme may increase the effectiveness of emulsifying agents, e.g, carboxymethylcellulose or polysorbate-80, e.g., to decrease risk/incidence of metabolic syndrome and/or inflammation.
# [2] = tested on: Enterobacteriales/Enterobacteriaceae microbes; experiment: Ex vivo fecal slurry assay, 16S rRNA sequencing (Example 19); conditions: 1% w/v fecal slurry from 12 subjects, glycan 0.5% w/v, 37° C., 18 hours, anaerobically; FIG. 15
# Description: as §1
# Microbial phosphorylase, e.g., thymidine phosphorylase or uridine phosphorylase, found in Enterobacteria, e.g., K. pneumoniae, is known to deglycosylate sorivudine, inactivating it. Sorivudine is used to treat viral infection (e.g. herpes simplex virus 1 and varicella-zoster virus). Decreasing the levels or activity of microbes expressing said microbial phosphorylase may decrease the inactivation of sorivudine and increase the effectiveness of sorivudine treatment against viral infections.
# [3] = tested on: Enterococcaceae/Enterococcus and/or Enterobacteriaceae/Escherichia/Shigella microbes; experiment: Ex vivo fecal slurry assay, 16S rRNA sequencing (Example 18); conditions: 1% w/v fecal slurry from 12 subjects, glycan 0.5% w/v, 37° C., 18 hours, anaerobically; FIGS. 3 and 14
# Description: as §1
# A microbial enzyme, found in Enterococcus, Clostridium, Corynebacterium, Campylobacter, and Escherichia, is known to convert sweetener to a compound that can be toxic, e.g., converts cyclamate to cyclohexylamine, which can be toxic. Decreasing the levels or activity of microbes expressing said microbial enzyme may decrease the generation of toxic compounds.
# [4] = tested on: Actinobacteria and/or Coriobacteriaceae/Gordonibacter; experiment: Ex vivo fecal slurry assay, 16S rRNA sequencing (Example 13); conditions: 1% w/v fecal slurry from 12 subjects, glycan 0.5% w/v, 37° C., 18 hours, anaerobically; FIGS. 6 and 8
# Description: as §1
# A microbial enzyme found in Actinobacteria and Coriobacteriaceae/Gordonibacter is known to hydrolyze ellagitannin to ellagic acid.
# [5] = tested on: Enterobacteriaceae/Escherichia/Shigella microbes; experiment: Ex vivo fecal slurry assay, 16S rRNA sequencing (Example 17); conditions: 1% w/v fecal slurry from 12 subjects, glycan 0.5% w/v, 37° C., 18 hours, anaerobically; FIG. 14
# Description: as §1
# Microbial beta-glucuronidase, found in bacteria that carry the uidA gene, e.g., Escherichia coli, is known to reactivate glucuronidated substrate, e.g., heterocyclic amines, (detoxified by hepatic glucuronidation), by removing the conjugate, generating a toxic compound. Decreasing the levels or activity of microbial beta-glucuronidase expressing microbes may decrease the generation of toxic, e.g., carcinogenic, compounds, which may have a preventative effect on cancer.
# [6] = tested on: Firmicutes, Proteobacteria, and/or Actinobacteria; experiment: Ex vivo fecal slurry assay, 16S rRNA sequencing (Example 11); conditions: 1% w/v fecal slurry from 12 subjects, glycan 0.5% w/v, 37° C., 18 hours, anaerobically; FIGS. 4-6
# Description: as §1
# Microbial beta-glucuronidase, found in Proteobacteria, Firmicutes, and Actinobacteria, is known to modify SN-38 glucuronide, which is used to treat cancer (e.g., colorectal cancer) and has the side-effect of diarrhea, by removing a sugar moiety, creating a compound that is toxic to intestinal epithelial cells. Decreasing the levels or activity of microbial beta-glucuronidase expressing microbes may increase the effectiveness of SN-38 glucuronidine treatment and/or decrease/prevent side effects.
# [7] = tested on: Enterococcaceae/Enterococcus and/or Bifidobacteriaceae/Bifidobacterium; experiment: Ex vivo fecal slurry assay, 16S rRNA sequencing (Example 15); conditions: 1% w/v fecal slurry from 12 subjects, glycan 0.5% w/v, 37° C., 18 hours, anaerobically; FIGS. 3 and 10
# Description: as §1
# A microbial enzyme, found in Enterococcus faecium, Lactobacillus mucosae, Bifidobacterium sp., and Eggerthella sp., is known to metabolize daidzin into equol, which binds estrogen receptor-beta and may be associated with lower risk/incidence of breast cancer. Increasing the levels or activity of microbes expressing said microbial enzyme may increase the have a preventative effect on cancer, e.g., breast cancer, or treat cancer, e.g., breast cancer.
structure (smiles),measurement,setting,value
OC[C@H]1O[C@@H](O[C@@H]2[C@@H](CO)OC(O)(CO)[C@H]2O)[C@H](O)[C@@H](O)[C@H]1O (mixture of isomers) [lactulose],levels of Ruminococcaceae/Ruminococcus microbes,[1],appeared to decrease
same,levels of Enterobacteriales/Enterobacteriaceae microbes,[2],appeared to decrease
same,levels of Enterococcaceae/Enterococcus and/or Enterobacteriaceae/Escherichia/Shigella microbes,[3],appeared to decrease
same,levels of Actinobacteria and/or Coriobacteriaceae/Gordonibacter,[4],appeared to decrease
same,levels of Enterobacteriaceae/Escherichia/Shigella microbes,[5],appeared to decrease
same,"levels of Firmicutes, Proteobacteria, and/or Actinobacteria",[6],appeared to decrease
same,levels of Enterococcaceae/Enterococcus and/or Bifidobacteriaceae/Bifidobacterium,[7],appeared to increase
